In PubChem BioAssay (NCI):
Values joined by “and” are separate entries in the source; they are usually repeats but may differ in a detail not shown here. Identical values can stand only once.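 Each compound was tested at five concentrations against cells in 96-well plates for 48 hours. GI50: concentration for 50% inhibition of growth. TGI is the concentration that stops growth completely.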

What was measured:
Test in all cases: DTP human tumour cell line panel, 48 h
786-0 renal = test system: 786-0 renal
UACC-257 melanoma = test system: UACC-257 melanoma
HCT-15 colon = test system: HCT-15 colon
IGROV1 ovarian = test system: IGROV1 ovarian
A498 renal = test system: A498 renal
UO-31 renal = test system: UO-31 renal
SN12C renal = test system: SN12C renal
HCT-116 colon = test system: HCT-116 colon
SNB-75 CNS = test system: SNB-75 CNS
HCC-2998 colon = test system: HCC-2998 colon

Row | Compound | GI50 (786-0 renal) [µM] | TGI (786-0 renal) [µM] | GI50 (UACC-257 melanoma) [µM] | TGI (UACC-257 melanoma) [µM] | GI50 (HCT-15 colon) | TGI (HCT-15 colon) [µM] | GI50 (IGROV1 ovarian) [µM] | TGI (IGROV1 ovarian) | GI50 (A498 renal) [µM] | TGI (A498 renal) [µM] | GI50 (UO-31 renal) [µM] | TGI (UO-31 renal) [µM] | TGI (SN12C renal) | TGI (HCT-116 colon) | GI50 (SNB-75 CNS) [µM] | TGI (SNB-75 CNS) [µM] | GI50 (HCT-116 colon) [µM] | GI50 (HCC-2998 colon) [µM] | TGI (HCC-2998 colon) [µM] | GI50 (SN12C renal) [µM]
1 | COC(=O)c1oc2c(O)c(OC)c(Br)cc2c1C | 18.2 | 32.4 | 24.5 | 99.6 | 17.6 µM | 35.5 | 32.7 | 91.6 µM | 32.7 | 65.8 | 46.9 | > 100 |  |  |  |  |  |  |  | 
2 | COc1ccc2cc3[n+](cc2c1OC)CCc1cc2c(cc1-3)OCO2 | 72.7 | > 100 |  |  | > 100 µM and 216 µM | > 325 | 18.4 | > 100 µM and 137 µM |  | > 307 |  |  | > 100 µM and 75.2 µM and 81 µM | > 100 µM and > 76.7 µM and 79.8 µM | 21.4 |  |  |  |  | 
3 | COCOCc1cc(OCc2ccccc2)c(OC)cc1Br |  | > 100 |  | > 100 |  | > 100 |  | > 100 µM |  | > 100 |  |  | > 100 µM | > 100 µM |  | > 100 |  |  |  | 
4 | CC(=O)c1c(O)ccc2c(C)c(C(=O)O)oc12 | > 100 | > 100 | > 100 | > 100 | > 100 µM | > 100 | > 100 | > 100 µM | > 100 | > 100 | > 100 | > 100 |  | > 100 µM | > 100 | > 100 | > 100 | 55.8 | > 100 | 
5 | COc1ccc(/C(=N\O)c2cc(OC)c(OC)c(OC)c2)c(OC)c1N | 6.77 | > 100 |  |  | 2.64 µM | > 100 | 6.83 | > 100 µM | 3.75 | > 100 | 8.14 | > 100 | > 100 µM | > 100 µM |  |  | 2.82 | 3.29 | > 100 | 7.9
6 | N#CCCN(CCC#N)c1ccc(/C=N\c2nc(-c3ccccc3)cs2)cc1 |  | > 100 |  | > 100 |  | > 100 |  | > 100 µM |  | > 100 |  | > 100 | > 100 µM | > 100 µM |  | > 100 |  |  |  | 
7 | O=C1Nc2ccccc2/C1=C/c1cn(C(=O)c2c(Cl)cccc2Cl)c2ccccc12 | 3.28 | 12.7 | 5 | 24.8 | 3.46 µM | 22.6 |  |  | 1.25 | 4.32 | 1.14 | 7.5 | 19.3 µM | 3.38 µM |  |  | 1.67 | 6.03 | 19.6 | 4
8 | COc1ccc(NC(=O)COC(=O)c2cccc3c(=O)c4ccccc4[nH]c23)cc1 |  | 53.1 |  | 42.7 |  |  |  | 91.3 µM |  | 39.6 |  | 36.4 | 92.8 µM | 25.5 µM |  | 41.2 |  |  | > 100 | 
9 | O=C1CCCC(=O)C1=C(O)CCCCCCCCCCc1ccccc1 |  | > 100 |  | > 100 |  |  |  | > 100 µM |  |  |  | 60.1 | > 100 µM | > 100 µM |  | 95.4 |  |  | > 100 | 
10 | CN(C)c1ccc(/C=C/c2ccnc3ccccc23)cc1N |  | 53.5 |  | 7.75 |  | 22.8 |  |  |  | 22.3 |  | 20.2 | 34.4 µM |  |  | 19.5 |  |  | 25.3 | 
11 | Cc1cc(Cl)ccc1NC(=O)CC1SC(N)=NC1=O (stereo not drawn) |  | > 100 |  | > 100 |  | > 100 |  | > 100 µM |  | > 100 |  | > 100 | > 100 µM |  |  | > 100 |  |  | > 100 | 
12 | COc1cc2c(cc1OCCCCCn1c(-c3ccco3)nc3ccccc31)N=C[C@@H]1CCCN1C2=O | < 0.01 | 1.3 | < 0.01 | < 0.01 | 0.0452 µM | 26.4 | < 0.01 | 13.2 µM | < 0.01 | < 0.0156 |  |  | 11.3 µM | 16.1 µM | < 0.01 | 0.0334 | < 0.01 | < 0.01 | 0.0193 | < 0.01
13 | Cn1cnc([N+](=O)[O-])c1SC1=NCCS1 |  | > 100 |  | > 100 |  |  |  | > 100 µM |  | > 100 |  | > 100 | > 100 µM | > 100 µM |  | > 100 |  |  | > 100 | 
14 | COc1cc(-n2cc(-c3ccc(F)cc3)[nH]c2=S)cc(OC)c1OC | 63.6 | > 100 | > 100 | > 100 | > 100 µM | > 100 | 41.6 | > 100 µM |  |  | > 100 | > 100 | > 100 µM | > 100 µM | 17.9 | 46.5 | > 100 | > 100 | > 100 | > 100
15 | O=C1C2C(C(=O)N1c1ccccc1)C1(c3ccccc3)OC2(c2ccccc2)c2ccccc21 (stereo not drawn) |  | > 100 |  | > 100 |  | > 100 |  | > 100 µM |  |  |  | > 100 | > 100 µM |  |  | > 100 |  |  | > 100 | 
16 | Cc1ccc(NC(=O)COC(=O)c2cccc3c(=O)c4ccccc4[nH]c23)cc1 |  | > 100 |  | > 100 |  |  |  | > 100 µM |  | 92.4 |  | 42.9 | > 100 µM | > 100 µM |  | 94.9 |  |  | > 100 | 
17 | CCOC(=O)N[C@H]1CCc2cc(O)c(OC)c(OC)c2-c2ccc(SC)c(=O)cc21 |  | > 59.9 |  | > 100 |  | > 100 |  | > 86.9 µM |  | 0.922 |  | > 100 | > 58.9 µM | 10.7 µM |  |  |  |  | > 100 | 
18 | C#C[C@@]1(O)CCCC2=CC(=O)C[C@]21C |  | > 100 |  | > 100 |  | > 100 |  | > 100 µM |  |  |  | > 100 | > 100 µM |  |  |  |  |  | > 100 | 
19 | N#Cc1c(NC(=O)c2cccc3ccccc23)sc2c1CCCC2 | 0.101 | > 25 |  | > 25 | 0.0775 µM | > 25 | 0.177 | > 25 µM | 0.0171 | 1.83 |  |  | > 25 µM | 5.37 µM | 0.0351 | > 25 | 0.0673 | 0.0751 | > 7.9 | 0.157
